Tests used:
Type in all cases: in vivo
[1] = system: Chilo suppressalis (Striped Rice Stemborer); assay: Example B4: Chilo suppressalis (Striped Rice Stemborer), artificial diet; conditions: 144 h, application rate of 200 ppm, L2 larvae, 6 days after infestation, read-out: control in at least one of the three categories (mortality, anti-feedant or growth inhibition)
Method: Example B4: Chilo suppressalis (Striped Rice Stemborer)
24-well microtiter plates with artificial diet were treated with aqueous test solutions prepared from 10′000 ppm DMSO stock solutions by pipetting. After drying, the plates were infested with L2 larvae (6-8 per well). The samples were assessed for mortality, anti-feeding effect, and growth inhibition in comparison to untreated samples 6 days after infestation. Control of Chilo suppressalis by a test sample is given when at least one of the categories mortality, anti-feedant effect, and growth inhibition is higher than the untreated sample.

[2] = system: Plutella xylostella (Diamond Back Moth); assay: Example B5: Plutella xylostella (Diamond Back Moth), artificial diet, 24-well; conditions: 192 h, application rate of 200 ppm, eggs, 8 days after infestation, read-out: control in at least one of the two categories (mortality or growth inhibition)
Method: Example B5: Plutella xylostella (Diamond Back Moth)
24-well microtiter plates with artificial diet were treated with aqueous test solutions prepared from 10′000 ppm DMSO stock solutions by pipetting. After drying, Plutella eggs were pipetted through a plastic stencil onto a gel blotting paper and the plate was closed with it. The samples were assessed for mortality and growth inhibition in comparison to untreated samples 8 days after infestation.

[3] = system: Spodoptera littoralis (Egyptian Cotton Leaf Worm); assay: Example B9: Spodoptera littoralis (Egyptian Cotton Leaf Worm), sprayed cotton leaf discs; conditions: foliar, 72 h, application rate of 200 ppm, L1 larvae, 3 days after infestation, read-out: control in at least one of the three categories (mortality, anti-feedant or growth inhibition)
[4] = system: Diabrotica balteata (Corn Root Worm); assay: Example B1: Diabrotica balteata (Corn Root Worm), sprayed maize sprouts; conditions: 96 h, application rate of 200 ppm, L2 larvae, 4 days after infestation, read-out: control in at least one of the two categories (mortality or growth inhibition)
Method: Example B1: Diabrotica balteata (Corn Root Worm)
Maize sprouts placed onto an agar layer in 24-well microtiter plates were treated with aqueous test solutions prepared from 10′000 ppm DMSO stock solutions by spraying. After drying, the plates were infested with L2 larvae (6 to 10 per well). The samples were assessed for mortality and growth inhibition in comparison to untreated samples 4 days after infestation.

CC(NC(=O)c1cc(C2CC2)cc(C(F)(F)F)c1)c1nccnc1-c1ccc(C#N)cn1 (centres unmarked) [P14, N-[1-[3-(5-cyano-2-pyridyl)pyra-zin-2-yl]ethyl]-3-cyclopropyl-5-(trifluoromethyl)benzamide]
≥ 80%: percent control (mortality, anti-feedant effect or growth inhibition) at 200 ppm [1] | percent control (mortality or growth inhibition) at 200 ppm [2] | percent control (mortality, anti-feedant effect or growth inhibition) at 200 ppm [3]

C[C@@H](c1nccnc1-c1ccc(C#N)cn1)N(CC1CC1)C(=O)c1cc(C(F)(F)F)cc(C(F)(F)C2CC2)c1 [P43, N-[(1S)-1-[3-(5-cyano-2-pyridyl)pyrazin-2-yl]ethyl]-3-[cyclopropyl(difluoro)methyl]-N-(cyclopropylmethyl)-5-(trifluoromethyl)benzamide]
≥ 80%: percent control (mortality or growth inhibition) at 200 ppm [4] | percent control (mortality, anti-feedant effect or growth inhibition) at 200 ppm [1] | percent control (mortality or growth inhibition) at 200 ppm [2] | percent control (mortality, anti-feedant effect or growth inhibition) at 200 ppm [3]

CC(NC(=O)c1cc(C2CC2)nc(C(F)(F)F)c1)c1nccnc1-c1ccc(C#N)cn1 (centres unmarked) [P17, N-[1-[3-(5-cyano-2-pyridyl)pyra-zin-2-yl]ethyl]-2-cyclopropyl-6-(trifluoromethyl)pyridine-4-carboxamide]
≥ 80%: percent control (mortality, anti-feedant effect or growth inhibition) at 200 ppm [1] | percent control (mortality or growth inhibition) at 200 ppm [2] | percent control (mortality, anti-feedant effect or growth inhibition) at 200 ppm [3]

CC(NC(=O)c1cc(C(F)(F)F)cc(C(F)(F)C2CC2)c1)c1nccnc1-c1ccc(C#N)cn1 (centres unmarked) [P18, N-[1-[3-(5-cyano-2-pyridyl)pyra-zin-2-yl]ethyl]-3-[cyclopropyl(difluoro)methyl]-5-(trifluoromethyl)benzamide]
≥ 80%: percent control (mortality, anti-feedant effect or growth inhibition) at 200 ppm [1] | percent control (mortality or growth inhibition) at 200 ppm [2] | percent control (mortality, anti-feedant effect or growth inhibition) at 200 ppm [3]

CC(NC(=O)c1cc(C(F)(F)F)cc(C(F)(F)C2CC2)c1)c1nccnc1-c1ncc(OCC(F)(F)F)cn1 (centres unmarked) [P4, 3-[cyclopropyl(difluoro)methyl]-N-[1-[3-[5-(2,2,2-trifluoroethoxy)pyrimidin-2-yl]pyrazin-2-yl]ethyl]-5-(trifluoromethyl)benzamide]
≥ 80%: percent control (mortality or growth inhibition) at 200 ppm [4] | percent control (mortality, anti-feedant effect or growth inhibition) at 200 ppm [1] | percent control (mortality or growth inhibition) at 200 ppm [2] | percent control (mortality, anti-feedant effect or growth inhibition) at 200 ppm [3]

CC(NC(=O)c1cc(C(F)(F)F)nc(C2(C#N)CC2)c1)c1nccnc1-c1ccc(C#N)cn1 (centres unmarked) [P16, 2-(1-cyanocyclopropyl)-N-[1-[3-(5-cyano-2-pyridyl)pyrazin-2-yl]eth-yl]-6-(trifluoromethyl)pyridine-4-carboxamide]
≥ 80%: percent control (mortality or growth inhibition) at 200 ppm [4] | percent control (mortality, anti-feedant effect or growth inhibition) at 200 ppm [1] | percent control (mortality or growth inhibition) at 200 ppm [2] | percent control (mortality, anti-feedant effect or growth inhibition) at 200 ppm [3]

CC(NC(=O)c1cc(C(F)(F)F)cc(S(=O)(=O)C(F)(F)F)c1)c1nccnc1-c1ccc(OC(F)F)cn1 (centres unmarked) [P11, N-[1-[3-[5-(difluoromethoxy)-2-pyridyl]pyrazin-2-yl]ethyl]-3-(trifluoromethyl)-5-(trifluoromethylsulfonyl)benzamide]
≥ 80%: percent control (mortality, anti-feedant effect or growth inhibition) at 200 ppm [1] | percent control (mortality or growth inhibition) at 200 ppm [2] | percent control (mortality, anti-feedant effect or growth inhibition) at 200 ppm [3]

CC(NC(=O)c1cc(C(F)(F)F)cc(C(C)(C)C#N)c1)c1nccnc1-c1ccc(OC(F)F)cn1 (centres unmarked) [P13, 3-(1-cyano-1-methyl-ethyl)-N-[1-[3-[5-(difluoromethoxy)-2-pyridyl]pyrazin-2-yl]ethyl]-5-(trifluoromethyl)benzamide]
≥ 80%: percent control (mortality or growth inhibition) at 200 ppm [4] | percent control (mortality, anti-feedant effect or growth inhibition) at 200 ppm [1] | percent control (mortality or growth inhibition) at 200 ppm [2] | percent control (mortality, anti-feedant effect or growth inhibition) at 200 ppm [3]

CC(NC(=O)c1cc(C2CC2)cc(C(F)(F)F)c1)c1nccnc1-c1ncc(OCC(F)(F)F)cn1 (centres unmarked) [P6, 3-cyclopropyl-N-[1-[3-[5-(2,2,2-trifluoroethoxy)pyrimidin-2-yl]pyrazin-2-yl]ethyl]-5-(trifluoromethyl)benzamide]
≥ 80%: percent control (mortality or growth inhibition) at 200 ppm [4] | percent control (mortality, anti-feedant effect or growth inhibition) at 200 ppm [1] | percent control (mortality or growth inhibition) at 200 ppm [2] | percent control (mortality, anti-feedant effect or growth inhibition) at 200 ppm [3]

CC(NC(=O)c1cc(C2CC2)cc(C(F)(F)F)c1)c1nccnc1-c1ccc(OC(F)F)cn1 (centres unmarked) [P7, 3-cyclopropyl-N-[1-[3-[5-(difluoromethoxy)-2-pyridyl]pyrazin-2-yl]ethyl]-5-(trifluoromethyl)benzamide]
≥ 80%: percent control (mortality or growth inhibition) at 200 ppm [4] | percent control (mortality, anti-feedant effect or growth inhibition) at 200 ppm [1] | percent control (mortality or growth inhibition) at 200 ppm [2] | percent control (mortality, anti-feedant effect or growth inhibition) at 200 ppm [3]

CC(NC(=O)c1cc(C(F)(F)F)cc(C(F)(F)C2CC2)c1)c1nccnc1-c1ccc(OCC(F)F)cn1 (centres unmarked) [P30, 3-[cyclopropyl(difluoro)methyl]-N-[1-[3-[5-(2,2-difluoroethoxy)-2-pyridyl]pyrazin-2-yl]ethyl]-5-(trifluoromethyl)benzamide]
≥ 80%: percent control (mortality or growth inhibition) at 200 ppm [2]

CC(NC(=O)c1cc(C(F)(F)F)cc(C(C)(C)C#N)c1)c1nccnc1-c1ccc(OCC(F)(F)F)cn1 (centres unmarked) [P10, 3-(1-cyano-1-methyl-ethyl)-N-[1-[3-[5-(2,2,2-trifluoroethoxy)-2-pyridyl]pyrazin-2-yl]ethyl]-5-(trifluoromethyl)benzamide]
≥ 80%: percent control (mortality, anti-feedant effect or growth inhibition) at 200 ppm [1] | percent control (mortality or growth inhibition) at 200 ppm [2] | percent control (mortality, anti-feedant effect or growth inhibition) at 200 ppm [3]

CC(NC(=O)c1cc(OC(F)(F)F)cc(C2(C#N)CC2)c1)c1nccnc1-c1ccc(C#N)cn1 (centres unmarked) [P45, 3-(1-cyanocyclopropyl)-N-[1-[3-(5-cyano-2-pyridyl)pyrazin-2-yl]ethyl]-5-(trifluorometh-oxy)benzamide]
≥ 80%: percent control (mortality, anti-feedant effect or growth inhibition) at 200 ppm [1] | percent control (mortality or growth inhibition) at 200 ppm [2]

COC1(c2cc(C(=O)NC(C)c3nccnc3-c3ccc(C#N)cn3)cc(C(F)(F)F)c2)CC1 (centres unmarked) [P46, N-[1-[3-(5-cyano-2-pyridyl)pyra-zin-2-yl]ethyl]-3-(1-methoxycyclopropyl)-5-(trifluoromethyl)benzamide]
≥ 80%: percent control (mortality or growth inhibition) at 200 ppm [4] | percent control (mortality, anti-feedant effect or growth inhibition) at 200 ppm [1] | percent control (mortality or growth inhibition) at 200 ppm [2] | percent control (mortality, anti-feedant effect or growth inhibition) at 200 ppm [3]

C[C@H](NC(=O)c1cc(C(F)(F)F)cc(C(F)(F)C2CC2)c1)c1nccnc1-c1ccc(C#N)cn1 [P42, N-[(1S)-1-[3-(5-cyano-2-pyridyl)pyrazin-2-yl]ethyl]-3-[cyclopropyl(difluoro)methyl]-5-(trifluoromethyl)benzamide]
≥ 80%: percent control (mortality or growth inhibition) at 200 ppm [4] | percent control (mortality, anti-feedant effect or growth inhibition) at 200 ppm [1] | percent control (mortality or growth inhibition) at 200 ppm [2] | percent control (mortality, anti-feedant effect or growth inhibition) at 200 ppm [3]

CC(NC(=O)c1cc(C(F)(F)F)cc(C(F)(F)C2CC2)c1)c1nccnc1-c1ccc(OC(F)F)cn1 (centres unmarked) [P5, 3-[cyclopropyl(difluoro)methyl]-N-[1-[3-[5-(difluoromethoxy)-2-pyridyl]pyrazin-2-yl]ethyl]-5-(trifluoromethyl)benzamide]
≥ 80%: percent control (mortality, anti-feedant effect or growth inhibition) at 200 ppm [1] | percent control (mortality or growth inhibition) at 200 ppm [2] | percent control (mortality, anti-feedant effect or growth inhibition) at 200 ppm [3]

CC(NC(=O)c1cc(C(F)(F)F)cc(S(=O)(=O)C(F)(F)F)c1)c1nccnc1-c1ccc(C#N)cn1 (centres unmarked) [P15, N-[1-[3-(5-cyano-2-pyridyl)pyra-zin-2-yl]ethyl]-3-(trifluoromethyl)-5-(trifluoromethylsulfonyl)benza-mide]
≥ 80%: percent control (mortality, anti-feedant effect or growth inhibition) at 200 ppm [1] | percent control (mortality or growth inhibition) at 200 ppm [2] | percent control (mortality, anti-feedant effect or growth inhibition) at 200 ppm [3]

CC(NC(=O)c1cc(C2CC2)nc(C(F)(F)F)c1)c1nccnc1-c1ncc(OCC(F)F)cn1 (centres unmarked) [P35, 2-cyclopropyl-N-[1-[3-[5-(2,2-difluoroethoxy)pyrimidin-2-yl]pyrazin-2-yl]ethyl]-6-(trifluoromethyl)pyridine-4-carboxamide]
≥ 80%: percent control (mortality, anti-feedant effect or growth inhibition) at 200 ppm [1] | percent control (mortality or growth inhibition) at 200 ppm [2] | percent control (mortality, anti-feedant effect or growth inhibition) at 200 ppm [3]

CC(NC(=O)c1cc(C(F)(F)F)cc(S(=O)(=O)C(F)(F)F)c1)c1nccnc1-c1ncc(OCC(F)(F)F)cn1 (centres unmarked) [P12, N-[1-[3-[5-(2,2,2-trifluoroethoxy)pyrimidin-2-yl]pyrazin-2-yl]ethyl]-3-(trifluoromethyl)-5-(trifluoromethylsulfonyl)benzamide]
≥ 80%: percent control (mortality, anti-feedant effect or growth inhibition) at 200 ppm [1] | percent control (mortality or growth inhibition) at 200 ppm [2] | percent control (mortality, anti-feedant effect or growth inhibition) at 200 ppm [3]
